Experimental data taken from patent US11981953B2, “Method to screen compounds for antifungal activity and pharmaceutical compositions and methods to treat fungal diseases by inhibiting spore germination” (WISCONSIN ALUMNI RESEARCH FOUNDATION, priority 2018, dated 2024).

Assays:
[1] = system: Aspergillus Fumigatus (AF293); experiment: Aspergillus fumigatus MIC on conidia; type: cell-based; settings: testing performed on conidia
Method: Conidia at a final concentration of 2×10^4 cells were incubated in RPMI, 0.33 M MOPS, and 2% glucose at pH 7 at varying concentrations of inhibitors, with a final volume of 200 μL.

[2] = system: Cryptococcus neoformans spores (JEC20 x JEC21); experiment: Quantitative germination assay (microfluidic devices, cell size and shape); type: cell-based
Method: All germination assays are based on Barkal et al., 2016. Briefly, microfluidic devices were loaded with 1×10^5 spores, and at 0 hours, SD media with drug of interest, were added to the sample. Spores were allowed to germinated at 30° C. in a humidified chamber and cells were monitored every two (2) hours for 16 hours. Each assay was performed in two (2) individual wells with three (3) field of views acquired from each well. All images were analyzed as previously described based on cell shape and size. Population ratio of spores, intermediate, and yeast cells were determined. Error bars in plots are based on variation between all fields of view acquired. […] After the 16-hour experiment, samples were plated on YPD and allowed to grow at 30° C. to determine if drugs were completely germicidal or not based on lack of growth. If assays were unable to be performed in microfluidic devices, the […] spores were incubated in identical conditions outside of PDMS devices and only loaded into devices for image acquisition.

[3] = system: JEC20×JEC21 yeast or spores in mouse lung; experiment: Fungal burden animal studies (mouse lung colony-forming units); type: in vivo, Cryptococcus neoformans; settings: for Lung fungal burden (colony-forming units) versus PBS-treated mice: 4 mg/kg/day intranasal for three days from 1-day post-infection, lungs day 4
Method: All yeast cells were cultured overnight in YPD, washed and diluted to 5×10^6 cells. For JEC20 and JEC21, 2.5×10^6 cells of each were combined. Spores were cultured as previously described and diluted to 2×10^6 cells. All experiments were performed on 8- to 10-week old C57BL/6J (Jackson Laboratory, Bar Harbor, Me., USA) female mice (5 mice per group). All mice were infected intranasally with a total of 50 μL. All dosing was performed with 4 mg/kg/day or 1×PBS for three (3) days either prior to infection or 1-day post-infection. Mice were sacked day-4 post-infection and lungs were collected, processed, and fungal burden was assessed.
Pentamidine is a successful inhibitor of Cryptococcus neoformans yeast replication in vitro. For repurposing potential, it is important to determine drug efficacy in vivo. For this purpose, the ability of pentamidine to lower the fungal burden in mouse lungs infected by both spores and yeast was determined. One-day post-infection intranasal dosing was begun at 4 mg/kg/day and the mice were treated for three consecutive days. On the fourth day post-infection, lungs were collected and fungal burden was determined. […] See FIG. 8A and FIG. 8B, respectively.
Pentamidine is a successful inhibitor of spore germination in vitro. It is important, though, to determine drug efficacy in vivo. Therefore, the ability of pentamidine to inhibit germination of spores in mouse lungs was determined. […], mice were infected with JEC20×JEC21 spores and 4-days post infection, mouse lungs were collected and lung fungal burden was determined.

[4] = system: JEC20-GFPxJEC21-GFP spores in mouse lung; experiment: In vivo germination (cells recovered from mouse lungs 8 hours post infection); design: species or system Cryptococcus neoformans; settings: prophylactic 4 mg/kg/day for three days; cells recovered 8 hours post infection
Method: Female mice, 8- to 10-week-old C57BL/6J (Jackson Laboratory) female mice (3 mice per group) were used. Mice were dosed with either 4mg/kg/day or 1×PBS (50 μL) for three (3) consecutive days. Mice were intranasally infected with 2×10^6 JEC20-GFPxJEC21-GFP spores, strains described in Walsh et al., 2018. After 8 hours post-infection, mice were sacked and lavaged with 0.05% TirtonX in 1×PBS. Lavage suspension underwent a series of treatments and washes, in order: red blood cell lysis (ACK lysing buffer, 2 mL, 5 minutes), formaldehyde fixation (4%, 500 μL, 30 minutes) and calcofluor white staining (25 μg/mL, 20 μL for 1 minute). Cells (50-100 per mouse) were imaged, and identified as Cryptococcus neoformans cells based on green fluorescent signal or cyan staining from calcofluor staining. Cells surface area and aspect ratio were measured in ImageJ and cells were classified as spores, intermediates, or yeast based on size and shapes parameters used in the quantitative germination assay.
In vivo spore germination has never been characterized mainly due to technical hurdles. Using a novel assay, Cryptococcus neoformans cells were recovered from prophylactically treated, spore-infected mouse lungs 8 hours post infection. […] Based on size and shape of the cells, the level of in vivo spore germination was quantified.

SMILES: N=C(N)c1ccc(OCCCCCOc2ccc(C(=N)N)cc2)cc1 [Pentamidine]
- Ability to inhibit Aspergillus fumigatus [1]: unable to inhibit
- Germicidal activity ([2]; 50 μg/mL): showed germicidal activity
- Spore germination over a range of concentrations ([2]; as concentrations increased): spore germination became slower
- Germicidal activity ([2]; lower concentration): not germicidal
- Spore escape from inhibition (words) ([2]; yeast population increase = escape, listed as pentamidine): no individual spores were able to escape inhibition
- Lung fungal burden after prophylaxis versus 1×PBS ([3]; 4 mg/kg/day for three consecutive days prior to infection with JEC20×JEC21 spores, lungs 4-days post infection, FIG. 9, p<0.01): successful in decreasing spore-mediated lung burden
- Lung fungal burden (colony-forming units) versus PBS-treated mice ([3]; spore-infected C57BL/6J mice, FIG. 8B, p<0.01): significantly lower fungal burdens in the lung
- Lung fungal burden (colony-forming units) versus PBS-treated mice ([3]; yeast-infected C57BL/6J mice, FIG. 8A, p<0.05): significantly lower fungal burdens in the lung
- Level of in vivo spore germination (spore, intermediate, yeast percent) [4]: higher spore percent and a lower yeast percent
